Data taken from patent US6552196B2, “Quinolone carboxylic acid derivatives” (Dong Wha Pharmaceutical Industrial Co., Ltd., priority 1997, dated 2003).
Values after ≈ are worked out from the molar mass of the structure shown.

Legend:
Assay type in all cases: cell-based
[1] = system: Staphylococcus aureus 121E; experiment: In vitro antibacterial activity against resistant strains (MIC); settings: resistant strain Staphylococcus aureus 121E, 2-fold agar dilution, methicillin resistant strains 48 hours at 30° C.
Description: (§1) 10^7 cfu/ml of bacteria were inoculated and cultured for 18 hours at 37° C. and then the antibacterial activities were measured. For the methicillin resistant strains the activities were measured after 48 hours of cultivation at 30° C. Hoechst Standard strains were used for the testings.

[2] = system: Staphylococcus aureus 697E; experiment: as above; settings: resistant strain Staphylococcus aureus 697E, 2-fold agar dilution, methicillin resistant strains 48 hours at 30° C.
Description: as §1

[3] = system: Staphylococcus aureus 692E; experiment: as above; settings: resistant strain Staphylococcus aureus 692E, 2-fold agar dilution, methicillin resistant strains 48 hours at 30° C.
Description: as §1

[4] = system: Staphylococcus aureus 241; experiment: as above; settings: resistant strain Staphylococcus aureus 241, 2-fold agar dilution, methicillin resistant strains 48 hours at 30° C.
Description: as §1

[5] = system: Staphylococcus aureus 293; experiment: as above; settings: resistant strain Staphylococcus aureus 293, 2-fold agar dilution, methicillin resistant strains 48 hours at 30° C.
Description: as §1

[6] = system: Staphylococcus aureus 208E; experiment: as above; settings: resistant strain Staphylococcus aureus 208E, 2-fold agar dilution, methicillin resistant strains 48 hours at 30° C.
Description: as §1

[7] = system: Staphylococcus aureus 701E; experiment: as above; settings: resistant strain Staphylococcus aureus 701E, 2-fold agar dilution, methicillin resistant strains 48 hours at 30° C.
Description: as §1

[8] = system: Staphylococcus epidermidis 178; experiment: as above; settings: resistant strain Staphylococcus epidermidis 178, 2-fold agar dilution, methicillin resistant strains 48 hours at 30° C.
Description: as §1

[9] = system: Staphylococcus aureus 8236; experiment: as above; settings: resistant strain Staphylococcus aureus 8236, 2-fold agar dilution, methicillin resistant strains 48 hours at 30° C.
Description: as §1

[10] = system: Staphylococcus aureus 88E; experiment: as above; settings: resistant strain Staphylococcus aureus 88E, 2-fold agar dilution, methicillin resistant strains 48 hours at 30° C.
Description: as §1

[11] = system: Staphylococcus aureus 303; experiment: as above; settings: resistant strain Staphylococcus aureus 303, 2-fold agar dilution, methicillin resistant strains 48 hours at 30° C.
Description: as §1

[12] = system: Staphylococcus aureus 703E; experiment: as above; settings: resistant strain Staphylococcus aureus 703E, 2-fold agar dilution, methicillin resistant strains 48 hours at 30° C.
Description: as §1

[13] = system: Staphylococcus aureus 695E; experiment: as above; settings: resistant strain Staphylococcus aureus 695E, 2-fold agar dilution, methicillin resistant strains 48 hours at 30° C.
Description: as §1

[14] = system: Staphylococcus aureus 690E; experiment: as above; settings: resistant strain Staphylococcus aureus 690E, 2-fold agar dilution, methicillin resistant strains 48 hours at 30° C.
Description: as §1

[15] = system: Staphylococcus aureus 694E; experiment: as above; settings: resistant strain Staphylococcus aureus 694E, 2-fold agar dilution, methicillin resistant strains 48 hours at 30° C.
Description: as §1

[16] = system: Staphylococcus aureus 179; experiment: as above; settings: resistant strain Staphylococcus aureus 179, 2-fold agar dilution, methicillin resistant strains 48 hours at 30° C.
Description: as §1

[17] = system: Staphylococcus epidermidis 291; experiment: as above; settings: resistant strain Staphylococcus epidermidis 291, 2-fold agar dilution, methicillin resistant strains 48 hours at 30° C.
Description: as §1

[18] = system: Staphylococcus aureus 693E; experiment: as above; settings: resistant strain Staphylococcus aureus 693E, 2-fold agar dilution, methicillin resistant strains 48 hours at 30° C.
Description: as §1

[19] = system: Staphylococcus aureus 256E; experiment: as above; settings: resistant strain Staphylococcus aureus 256E, 2-fold agar dilution, methicillin resistant strains 48 hours at 30° C.
Description: as §1

[20] = system: Esherichia coli DC2; experiment: In vitro antibacterial activity (MIC), agar dilution; settings: 2-fold agar dilution, Muller-Hinton agar, 18 hours at 37° C.
Summary of the method: (§2)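 Hoechst standard bacteria, […], were cultured at 37 °C for 18 h prior to measuring activity; resistant (methicillin) strains were cultivated longer, 48 h, and cooler, at 30 °C.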

[21] = system: Esherichia coli TEM; experiment: as above; settings: 2-fold agar dilution, Muller-Hinton agar, 18 hours at 37° C.
Summary of the method: as §2

[22] = system: Streptococcus faecium MD 8b; experiment: as above; settings: 2-fold agar dilution, Muller-Hinton agar, 18 hours at 37° C.
Summary of the method: as §2

[23] = system: Staphylococcus aureus 285; experiment: as above; settings: 2-fold agar dilution, Muller-Hinton agar, 18 hours at 37° C.
Summary of the method: as §2

[24] = system: Esherichia coli DC0; experiment: as above; settings: 2-fold agar dilution, Muller-Hinton agar, 18 hours at 37° C.
Summary of the method: as §2

[25] = system: Pseudomonas aeruginosa 1592E; experiment: as above; settings: 2-fold agar dilution, Muller-Hinton agar, 18 hours at 37° C.
Summary of the method: as §2

[26] = system: Staphylococcus aureus SG511; experiment: as above; settings: 2-fold agar dilution, Muller-Hinton agar, 18 hours at 37° C.
Summary of the method: as §2

[27] = system: Staphylococcus aureus 503; experiment: as above; settings: 2-fold agar dilution, Muller-Hinton agar, 18 hours at 37° C.
Summary of the method: as §2

[28] = system: Streptococcus pyogens 77A; experiment: as above; settings: 2-fold agar dilution, Muller-Hinton agar, 18 hours at 37° C.
Summary of the method: as §2

[29] = system: Streptococcus pyogens 308A; experiment: as above; settings: 2-fold agar dilution, Muller-Hinton agar, 18 hours at 37° C.
Summary of the method: as §2

[30] = system: Pseudomonas aeruginosa 9027; experiment: as above; settings: 2-fold agar dilution, Muller-Hinton agar, 18 hours at 37° C.
Summary of the method: as §2

[31] = system: Esherichia coli 078; experiment: as above; settings: 2-fold agar dilution, Muller-Hinton agar, 18 hours at 37° C.
Summary of the method: as §2

[32] = system: Klebsiella aerogenes 1522E; experiment: as above; settings: 2-fold agar dilution, Muller-Hinton agar, 18 hours at 37° C.
Summary of the method: as §2

[33] = system: Salmonella typhimurium; experiment: as above; settings: 2-fold agar dilution, Muller-Hinton agar, 18 hours at 37° C.
Summary of the method: as §2

[34] = system: Pseudomonas aeruginosa 1771; experiment: as above; settings: 2-fold agar dilution, Muller-Hinton agar, 18 hours at 37° C.
Summary of the method: as §2

[35] = system: Klebsiella oxytoca 1082E; experiment: as above; settings: 2-fold agar dilution, Muller-Hinton agar, 18 hours at 37° C.
Summary of the method: as §2

[36] = system: Esherichia coli 1507E; experiment: as above; settings: 2-fold agar dilution, Muller-Hinton agar, 18 hours at 37° C.
Summary of the method: as §2

[37] = system: Pseudomonas aeruginosa 1771M; experiment: as above
Summary of the method: as §2

[38] = system: Enterobacter clocae 1321E; experiment: as above; settings: 2-fold agar dilution, Muller-Hinton agar, 18 hours at 37° C.
Summary of the method: as §2

[39] = system: Enterobacter clocae P99; experiment: as above; settings: 2-fold agar dilution, Muller-Hinton agar, 18 hours at 37° C.
Summary of the method: as §2

[40] = read-out: minimum inhibitory concentration (MIC)

SMILES: O=C(O)c1cn(C2CC2)c2cc(N3CCNCC3)c(F)cc2c1=O [Ciprofloxacin, ciprofloxacin, reference compound]
- MIC [1, 40]: 0.781 µg/mL (≈ 2.36 µM)
- MIC [2, 40]: 0.391 µg/mL (≈ 1.18 µM)
- MIC [3, 40]: 0.391 µg/mL (≈ 1.18 µM)
- MIC [4, 40]: 12.5 µg/mL (≈ 37.7 µM)
- MIC [5, 40]: 12.5 µg/mL (≈ 37.7 µM)
- MIC [6, 40]: 0.781 µg/mL (≈ 2.36 µM)
- MIC [7, 40]: 0.391 µg/mL (≈ 1.18 µM)
- MIC [8, 40]: 50 µg/mL (≈ 151 µM)
- MIC [9, 40]: 12.5 µg/mL (≈ 37.7 µM)
- MIC [10, 40]: 0.781 µg/mL (≈ 2.36 µM)
- MIC [11, 40]: 12.5 µg/mL (≈ 37.7 µM)
- MIC [12, 40]: 0.391 µg/mL (≈ 1.18 µM)
- MIC [13, 40]: 0.391 µg/mL (≈ 1.18 µM)
- MIC [14, 40]: 0.391 µg/mL (≈ 1.18 µM)
- MIC [15, 40]: 0.391 µg/mL (≈ 1.18 µM)
- MIC [16, 40]: 12.5 µg/mL (≈ 37.7 µM)
- MIC [17, 40]: 50 µg/mL (≈ 151 µM)
- MIC [18, 40]: 0.391 µg/mL (≈ 1.18 µM)
- MIC [19, 40]: 0.781 µg/mL (≈ 2.36 µM)
- MIC [20, 40]: 0.049 µg/mL (≈ 0.148 µM)
- MIC [21, 40]: 0.007 µg/mL (≈ 0.0211 µM)
- MIC ([22]; Enterococcus faecium, MD8B, read-out: minimum inhibitory concentration (MIC)): 0.391 µg/mL (≈ 1.18 µM)
- MIC [23, 40]: 0.781 µg/mL (≈ 2.36 µM)
- MIC [24, 40]: 0.195 µg/mL (≈ 0.589 µM)
- MIC [25, 40]: 0.195 µg/mL (≈ 0.589 µM)
- MIC [26, 40]: 0.195 µg/mL (≈ 0.589 µM)
- MIC [27, 40]: 0.391 µg/mL (≈ 1.18 µM)
- MIC [28, 40]: 0.781 µg/mL (≈ 2.36 µM)
- MIC [29, 40]: 3.12 µg/mL (≈ 9.43 µM)
- MIC [30, 40]: 0.195 µg/mL (≈ 0.589 µM)
- MIC [31, 40]: 0.004 µg/mL (≈ 0.0121 µM)
- MIC [32, 40]: 0.013 µg/mL (≈ 0.0392 µM)
- MIC ([33]; Salmonella enterica, read-out: minimum inhibitory concentration (MIC)): 0.007 µg/mL (≈ 0.0211 µM)
- MIC [34, 40]: 0.195 µg/mL (≈ 0.589 µM)
- MIC [35, 40]: < 0.002 µg/mL
- MIC [36, 40]: 0.007 µg/mL (≈ 0.0211 µM)
- MIC ([37]; Pseudomonas aeruginosa, 1771M, 18 h, read-out: minimum inhibitory concentration (MIC)): 0.049 µg/mL (≈ 0.148 µM)

SMILES: CON=C1CN(c2c(F)c(N)c3c(=O)c(C(=O)O)cn(C4CC4)c3c2F)CC12CNC2.CS(=O)(=O)O [Example 5, 1-Cyclopropyl-5-amino-6,8-difluoro-7-[8-(methoxyimino)-2,6-diazaspiro[3,41]oct-6-yl]-4-oxo-1,4-dihydro-3-quinolinecarboxylic acid methanesulfonate]
- minimum inhibitory concentration (MIC) [1]: 0.013 µg/mL
- minimum inhibitory concentration (MIC) [2]: <0.002 µg/mL
- minimum inhibitory concentration (MIC) [3]: 0.004 µg/mL
- minimum inhibitory concentration (MIC) [4]: 0.098 µg/mL
- minimum inhibitory concentration (MIC) [5]: 0.098 µg/mL
- minimum inhibitory concentration (MIC) [6]: 0.007 µg/mL
- minimum inhibitory concentration (MIC) [7]: 0.007 µg/mL
- minimum inhibitory concentration (MIC) [8]: 0.391 µg/mL
- minimum inhibitory concentration (MIC) [9]: 0.098 µg/mL
- minimum inhibitory concentration (MIC) [10]: 0.007 µg/mL
- minimum inhibitory concentration (MIC) [11]: 0.098 µg/mL
- minimum inhibitory concentration (MIC) [12]: 0.007 µg/mL
- minimum inhibitory concentration (MIC) [13]: 0.007 µg/mL
- minimum inhibitory concentration (MIC) [14]: 0.007 µg/mL
- minimum inhibitory concentration (MIC) [15]: 0.007 µg/mL
- minimum inhibitory concentration (MIC) [16]: 0.098 µg/mL
- minimum inhibitory concentration (MIC) [17]: 0.391 µg/mL
- minimum inhibitory concentration (MIC) [18]: 0.007 µg/mL
- minimum inhibitory concentration (MIC) [19]: 0.007 µg/mL
- minimum inhibitory concentration (MIC) [20]: 0.013 µg/mL
- minimum inhibitory concentration (MIC) [21]: 0.013 µg/mL
- minimum inhibitory concentration (MIC) [22]: 0.025 µg/mL
- minimum inhibitory concentration (MIC) [23]: 0.007 µg/mL
- minimum inhibitory concentration (MIC) [24]: 0.098 µg/mL
- minimum inhibitory concentration (MIC) [25]: 0.391 µg/mL
- minimum inhibitory concentration (MIC) [26]: <0.002 µg/mL
- minimum inhibitory concentration (MIC) [27]: <0.002 µg/mL
- minimum inhibitory concentration (MIC) [28]: <0.002 µg/mL
- minimum inhibitory concentration (MIC) [38]: 0.004 µg/mL
- minimum inhibitory concentration (MIC) [39]: 0.007 µg/mL
- minimum inhibitory concentration (MIC) [29]: 0.025 µg/mL
- minimum inhibitory concentration (MIC) [30]: 0.781 µg/mL
- minimum inhibitory concentration (MIC) [31]: <0.002 µg/mL
- minimum inhibitory concentration (MIC) [32]: 0.025 µg/mL
- minimum inhibitory concentration (MIC) [33]: <0.002 µg/mL
- minimum inhibitory concentration (MIC) [34]: 0.391 µg/mL
- minimum inhibitory concentration (MIC) [35]: <0.002 µg/mL
- minimum inhibitory concentration (MIC) [36]: 0.007 µg/mL
- minimum inhibitory concentration (MIC) ([37]; Pseudomonas aeruginosa 1771M, 2-fold agar dilution, Muller-Hinton agar, 18 hours at 37° C.): 0.195 µg/mL
